Reference: patent US7745393B2, “Minimalist bZIP proteins and uses thereof” (priority 2005, dated 2010)
Entries after “also recorded” stand apart in the source; their conditions may differ.

B1: Arnt-C/EBP: Arnt basic region and a portion of Helix 1 directly fused to the C/EBP zipper (protein)
chain: DQMSNDKERFARENHSEIERRRRNKMTAYITELSRIRLEQKVLELTSDNDRLRKRVEQLSRELDTL
modifications: Arnt-C/EBP
notes: Arnt basic region and a portion of Helix 1 directly fused to the C/EBP zipper
B2: Arnt1-C/EBP: Arnt basic region, RIR linker, C/EBP leucine zipper; SEQ ID No. 7 (protein)
chain: KFLRCDDDQMSNDKERFARENHSEIERRRRNKMTAYITERIRLEQKVLELTSDNDRLRKRVEQLSRELDTL
modifications: fusion protein

Legend:
[1] = biological target: E-box; conditions: high-salt conditions, in vitro; cited from earlier work
[2] = test system: E-box target, 5′-CACGTG; experiment: yeast one-hybrid his3 reporter assay (colony growth on SD/-His/-Leu with 3-AT); assay type: cell-based, Saccharomyces cerevisiae; parameters: key to his3: +: positive; −: negative; conditions: for his3 assay binding/colony growth: 30° C.; for binding to E-box / colony growth in yeast one-hybrid assay: 3-AT concentration not stated; for his3: positive/negative colony growth in yeast cells on plates
Description: A reporter strain was constructed such that the E-box target, 5′-CACGTG, resides upstream of the HIS3 reporter gene. The bHLH/bZIP hybrid was fused to the GAL4 transcriptional activation domain so that if a hybrid binds the E-box, the HIS3 protein will be expressed, thus allowing yeast to survive under conditions of histidine auxotrophy. Four tandem copies of the E-box (as shown in Table 9) were cloned into the pHISi-1 integrating reporter vector (Matchmaker One-Hybrid System, Clontech). After insertion of the E-box insert, the pHISi-1 vector was linearized and incorporated into the yeast genome by homologous recombination to generate Saccharomyces cerevisiae YM4271[pHISi-1/E-box]. To assess background due to the reporter, 3-aminotriazole (3-AT) was used as a competitive inhibitor of the HIS3 protein. Because it is possible that the reporter may be activated by endogenous factors, YM4271[pHISi-1/E-box] was subjected to titration with varying amounts of 3-AT to measure the concentration of 3-AT sufficient for suppression of background growth.
Transformation of the yeast cells was performed by electroporation. Following electroporation, cells were plated on minimal selective medium lacking leucine and histidine with the appropriate amount of 3-AT to suppress background.
(§1) A modified yeast one-hybrid system (Y1H) (Wang MM and Reed RR. 1993, Nature, 364, 121) was used to examine the E-box binding activity of the hybrids in vivo. Two S. cerevisiae reporter strains were constructed: four tandem copies of the E-box were cloned upstream of either the his3 or LacZ reporters. In the his3 assay, the His3 protein is expressed upon binding of our hybrids at E-box, allowing yeast to survive under histidine auxotrophy (FIG. 6). Surviving colonies are visualized on plates with media lacking histidine and in the presence of 3-aminotriazole (3-AT), a competitive inhibitor of His3 that reduces background growth. Yeast was plated on 10-60 mM 3-AT as a qualitative test of binding strength to E-box. Hybrids were also tested by two assays based on the LacZ reporter, which encodes β-galactosidase. (Serebriiskii, I. G. and Golemis, E. A. 2000 Anal. Biochem. 285, 1. The qualitative colony-lift filter assay uses X-gal as substrate for calorimetric visualization of protein-DNA binding (FIG. 7). Positives display vivid blue color. The ortho-nitrophenyl-β-galactoside (ONPG) liquid assay is quantitative (FIG. 8). However, this assay is not sensitive enough to quantify weak interactions accurately, (Mökli, N. and Auerbach, D. 2004 BioTechniques 36, 872) so the far more sensitive colony-lift assay is also typically performed.

[3] = test system: E-box; experiment: LacZ colony-lift filter assay (X-gal); assay type: cell-based, S. cerevisiae; parameters: key to Colony-lift: +: blue; −: white; conditions: for Colony-lift: LacZ-based X-gal colony-lift filter assay, blue/white screen; for colony-lift filter assay binding (color): X-gal substrate
Description: as §1

[4] = test system: E-box; experiment: LacZ ONPG liquid assay (β-galactosidase); assay type: cell-based, S. cerevisiae; conditions: for β-galactosidase activity: ONPG assay, FIG. 8, averages of nine to twelve measurements
Description: The measurement of binding of the minimalist bZIP proteins to the target DNA sequence is a LacZ-based quantitative assay using ortho-nitrophenyl-beta-galactoside as calorimetric substrate (ONPG). Minimalist bZIP proteins with ONPG values exceeding 10 beta-galactosidase units are considered to be good binders to the target DNA sequence. Minimalist bZIP proteins with ONPG values below 10 beta-galactosidase units are ideal for selection and evolution,
as §1

| Molecule | his3 assay binding/colony growth ([2]; 10 mM 3-AT) | binding to E-box / colony growth in yeast one-hybrid assay [2] | his3 [2] | Colony-lift [3] | colony-lift filter assay binding (color) [3] | ONPG ([4]; Table 11) | β-galactosidase activity [4] | also measured |
| --- | --- | --- | --- | --- | --- | --- | --- | --- |
| Arnt bHLH: Arnt bHLH alone (56 amino acids), literature, Huffman et al. 2001 |  |  |  |  |  |  |  | Kd [1]: 56.2 ± 11.7 nM |
| Max-C/EBP: Max basic region, RIR linker, C/EBP leucine zipper; SEQ ID NO. 52, same sequence as SEQ ID No. 1 (ADKRAHHNALERKRRDHIKDSFHSRIRLEQKVLELTSDNDRLRKRVEQLSRELDTL; fusion protein) | no binding | undetectable | − | − | no binding (clear) | 2.2 ± 0.2 β-galactosidase units |  | his3 assay binding/colony growth ([2]; 10 mM 3-AT, listed as Max/C-EBP): Binding undetectable |
| native Max bHLHZ: native Max bHLHZ (residues 22-113, 92 amino acids), positive control |  |  | + | + |  | 26.4 ± 7.7 β-galactosidase units | 26.4±7.7 | his3 assay binding/colony growth ([2]; 20 mM 3-AT): strong binding/colony growth; his3 assay binding/colony growth ([2]; 60 mM 3-AT, listed as Max bHLHZ): good colony growth; his3 assay binding/colony growth ([2]; 60 mM 3-AT, listed as Native Max bHLHZ): strong binding/colony growth; colony-lift filter assay binding (color) ([3]; listed as Max bHLHZ): intense blue color; also recorded: positive binding (dark blue); colony-lift filter assay binding (color) ([3]; listed as Native Max bHLHZ): positive binding (dark blue); ONPG ([4]; Table 12): 26.41 ± 7.73 |
| B1 |  | no colony growth |  |  | extremely pale color; also recorded: no binding (clear) |  | 2.9±0.3 |  |
| B2 | able to bind to the E-box target DNA sequence |  |  |  |  |  |  |  |
